Results as given in publication PMC2838427 (British journal of haematology, 2009).
“And” between values parts separate entries of the source, which are not always exact repeats. Equal entries are not always repeated.

Experiments:
[1] = patients with chronic myelogenous leukemia; ref Picard, et al 2007; cited from earlier work
[2] = tested on: histone H3 acetylation in peripheral blood mononuclear cells (PBMCs); settings: human, in vivo
[3] = tested on: ABCB1 gene expression in PBMCs; settings: human, in vivo
[4] = tested on: ABCB1 gene expression in tumor biopsy samples; settings: in vivo
fetal hemoglobin (HbF) = test: Blood fetal hemoglobin; format: in vivo, patients

## Cc1ccc(NC(=O)c2ccc(CN3CCN(C)CC3)cc2)cc1Nc1nccc(-c2cccnc2)n1 [imatinib]
[1]
  trough plasma threshold associated with response: 1002 ng/mL

## C/C=C1\NC(=O)[C@H]2CSSCC/C=C/[C@H](CC(=O)N[C@H](C(C)C)C(=O)N2)OC(=O)[C@H](C(C)C)NC1=O [romidepsin, (E)-(1S,4S,10S,21R)-7-[(Z)-Ethylidene]-4,21-diisopropyl-2-oxa-12,13-dithi a-5,8,20,23-tetraazabicyclo[8,7,6]-tricos-16-ene-3,6,9,22-pentanone]
[2]
  patients with at least a 2-fold increase in global histone acetylation: 73%
  patients with fold increase x < 2 in histone acetylation, number (%): 21 (57%) and 11 (61%)
[3]
  median fold increase in ABCB1 mRNA expression: 2.74 and 1.78
  patients having ABCB1 levels 2-fold or higher than baseline: 56% and 37%
  samples again showing less than 2-fold ABCB1 increase at 24 h: 71%
[4]
  fold increase in ABCB1 in a biopsy sample, one patient: greater than 30
  fold increase in ABCB1 in biopsy samples, all other values: below 8
  increase in median ABCB1 level on-study to off study: 50%
  pre/post sample sets with greater than 50% increase in ABCB1 expression level: Fourteen
  pre/post samples with two-fold or greater increase in ABCB1 level: eight
Fetal hemoglobin (HbF); 61 patients
  median time to peak induction of HbF: 99 days
  range of time to peak induction of HbF: 27 to 295 days
Fetal hemoglobin (HbF); CR/PR
  HbF fold change, range: 1.69–23.00
Fetal hemoglobin (HbF); Final vs baseline, n=49
  patients with fold increase 2 ≤ x < 4 in hemoglobin F, number (%): 9 (18%)
  patients with fold increase x < 2 in hemoglobin F, number (%): 20 (41%)
  patients with fold increase x ≥ 4 in hemoglobin F, number (%): 20 (41 %)
Fetal hemoglobin (HbF); Peak vs baseline, n=52
  patients with fold increase 2 ≤ x < 4 in hemoglobin F, number (%): 7 (13%)
  patients with fold increase x < 2 in hemoglobin F, number (%): 14 (27%)
  patients with fold increase x ≥ 4 in hemoglobin F, number (%): 31 (60%)
Fetal hemoglobin (HbF); SD/PD
  HbF fold change, range: 0.95–11.50
Fetal hemoglobin (HbF); peak vs baseline
  patients with > 4-fold rise in HbF levels: 60%
Fetal hemoglobin (HbF); peak vs baseline, zero baselines reassigned 0.2%
  patients with two-fold or greater induction of fetal hemoglobin: 73%
